4 substances from patent US11085056B2, “Transfection complexes and methods of using the same” (MOLECULAR TRANSFER, INC., priority 2015, dated 2021) can be followed below.

One assay has as its system Human Fibroblast Cells. The assay can be described thus: Transfection of human fibroblast cells with DOTMA/DOPE/peptide and eGFP plasmid, fluorescent plate reader. It is filed as cell-based. The note with it: DOTMA/DOPE 1:1 plus peptide with RRRRRRRRRRRR (SEQ ID NO: 109) at n terminus; EF1Alpha eGFP plasmid; 0.01 mL complex; 42 hours. The method in brief:
(§1)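 Cells at 60-70% confluence got DOTMA/DOPE (1:1) mixed with peptides bearing an N-terminal R12 DNA-binding tag, complexed 10 min with EF1α-eGFP plasmid (5 μg/mL in OptiMEM); 0.01 or 0.02 mL complex per well. After 42 h at 37 °C, GFP read by fluorescence plate reader and % transfected cells by microscopy, relative to lipid without peptide.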

In a further assay the test system is C2C12 Cells. The assay can be described thus: Transfection of C2C12 cells with DOTMA/DOPE/peptide and eGFP plasmid, fluorescent plate reader. It is filed as cell-based, mouse. Particulars: DOTMA/DOPE 1:1 plus peptide with RRRRRRRRRRRR (SEQ ID NO: 109) at n terminus; EF1Alpha eGFP plasmid; 0.02 mL complex; 42 hours. The method, boiled down:
as §1

The next assay concerns some examined cell types. Nature of the assay: Transfection expression and % cells transfected over the no peptide control. The note with it: on some examined cell types. It is filed as cell-based. The method in brief:
as §1

The subject of another assay is HuVec Cells. The assay can be described thus: Transfection of HuVec cells with DOTMA/DOPE/peptide and eGFP plasmid, fluorescent plate reader. It is filed as cell-based. The note with it: DOTMA/DOPE 1:1 plus peptide with RRRRRRRRRRRR (SEQ ID NO: 109) at n terminus; EF1Alpha eGFP plasmid; 0.01 mL complex; 42 hours. The method, boiled down:
as §1

Another assay has as its system NL-1 iPS Cells. The assay can be described thus: Transfection of NL-1 iPS cells with DOTMA/DOPE/peptide and eGFP plasmid, fluorescent plate reader. It is filed as cell-based. The note with it: DOTMA/DOPE 1:1 plus peptide with RRRRRRRRRRRR (SEQ ID NO: 109) at n terminus; EF1Alpha eGFP plasmid; 42 hours.
The test system of assay [1] is HeLa Cells. The assay can be described thus: Transfection of HeLa cells with DOTMA/DOPE/peptide and eGFP plasmid, fluorescent plate reader. The note with it: DOTMA/DOPE 1:1 plus peptide with RRRRRRRRRRRR (SEQ ID NO: 109) at n terminus; EF1Alpha eGFP plasmid; 0.01 mL complex; 42 hours. It is filed as cell-based. The method in brief:
as §1

For the next assay, the system named is Jurkat Cells. Nature of the assay: Transfection of Jurkat cells with DOTMA/DOPE/peptide and eGFP plasmid, fluorescent plate reader. The note with it: DOTMA/DOPE 1:1 plus peptide with RRRRRRRRRRRR (SEQ ID NO: 109) at n terminus; EF1Alpha eGFP plasmid; 0.02 mL complex; 42 hours. It is filed as cell-based. The method in brief: as §1
For assay [2], the system named is HeLa Cells. The assay can be described thus: Transfection of HeLa cells with DOTMA/SEQ ID NO: 72/peptide compared with Lipofectamine 2000. The note with it: fusogenic peptide 0.1 mg/mL. It is filed as cell-based. Here is the method: Cells were plated to so that on the day of transfection the cells were 60-70% confluent in 96 well tissue culture plates. A DOMTA/DOPE Lipid solution (1:1 molar ratio) at 2 mg/mL in water were mixed with an equal volume of surface ligand peptides that had the nucleic acid binding moiety RRRRRRRRRRRR (SEQ ID NO: 109) covalently linked to the n terminus of each peptide during peptide synthesis. Peptides were at 2 mg/mL in water. The DOTMA/DOPE and the surface ligand peptide solution the transfection reagent was diluted 1 to 1 (v/v) in water. DOMTA/DOPE/PEPTIDE solutions were added to 0.1 mL of a plasmid DNA solution (EF1Alpha eGFP plasmid) at 5 μg/mL in OptiMEM. Lipofectamine 2000 was obtained from Life Technologies.
All solutions were at room temperature. A volume of 0.2 mL of a 5 μg/mL solution of DNA was aliquoted into each well of a non-tissue cultured treated plate. 4.0 μL of transfection reagents were added to DNA solutions respectively. The transfection reagent and DNA solution was mixed by pipetting up and down twice. Transfection complexes were formed for 10 minutes. After 10 minutes, 0.01 or 0.02 mL of the transfection complex was added to cells. HuVEC, HeLa, human adult keratinocytes, human primary adult fibroblast, and rat cortical neurons all respectively received 0.01 mL of the tramsfectopm complex. Human skeletal muscle cells, mouse C2C12 cells, Jurkat, and THP-1 cells received 0.02 mL of the transfection complex. Cells were incubated for 42 hours at 37° C. at 5% CO2. Plates were read on a fluorescent plate reader. Cells were also examined visually under a microscope to assess the extent of transfection (in terms of the percent of cells transfected) with a fluorescent microscope. Other modes of analysis, for example quantification with B-galactosidase or luciferase reports plasmids can also be used. […] Surface ligand that caused increase expression of GFP over the lipid DOTMA with no surface ligand were considered to enhance transfection or had higher % cells transfected were considered to enhance transfection. Peptides that gave greater than 2 fold enhancement are noted in bold and could be further optimized by adding different transfection enhancers or could be used with different cationic lipids or polymers.
The fusogenic peptide was added to the DOMTA/peptide formulation to achieve a final concentration of 0.1 mg/mL to see if transfection reagents were further enhanced by the addition of a fusogenic peptide and could provide higher transfection efficiency into HeLa cells and expression than the commercially available Lipofectamine 2000.

Setting [3] is: 0.1 μL of DOTMA/SEQ ID NO: 72/Peptide in well of a 96 well plate.
Where [4] appears, read: 0.2 μL of DOTMA/SEQ ID NO: 72/Peptide in well of a 96 well plate.
The mark [5] stands for this setting: 0.3 μL of DOTMA/SEQ ID NO: 72/Peptide in well of a 96 well plate.
Where [6] appears, read: 0.4 μL of DOTMA/SEQ ID NO: 72/Peptide in well of a 96 well plate.

As to “348 (HQQDLGTAGSCLRKFSTM; Peptidic transfection agent) [compound 348]”, the “RF (Relative Fluorescence) of Transfection of Human Fibroblast Cells” value in the assay with Human Fibroblast Cells stood at 11802. In the assay with C2C12 Cells, the “RF (Relative Fluorescence) of Transfection of C2C12 Cells” value amounted to 8625. Also, the “transfection expression and the % cells transfected over the no peptide control” value with some examined cell types is listed as “increased”. The “RF (Relative Fluorescence) of Transfection of HuVec Cells” value in the assay with HuVec Cells worked out at 21214. Besides, the “RF (Relative Fluorescence) of Transfection of NL-1 iPS Cells” value in the assay on NL-1 iPS Cells is reported as 21645. The “RF (Relative Fluorescence) of Transfection of HeLa Cells” value in the assay on HeLa Cells [1] turned out to be 22289. Moreover, the “RF (Relative Fluorescence) of Transfection of Jurkat Cells” value in the assay on Jurkat Cells turned out to be 15585. In addition, the “RF (Relative Fluorescence), DOTMA/SEQ ID NO: 72/Peptide, HeLa Cells” value in the assay with HeLa Cells [2] (setting [3]) was determined as 17413; in the assay on HeLa Cells [2] (setting [4]), 18615; in the assay with HeLa Cells [2] (setting [5]), 16164; in the assay on HeLa Cells [2] (setting [6]), 15054.
As for “350 (SIGFRGDGQTC; Peptidic transfection agent) [compound 350]”, the “RF (Relative Fluorescence) of Transfection of Human Fibroblast Cells” value with Human Fibroblast Cells is 7105. In addition, the “RF (Relative Fluorescence) of Transfection of C2C12 Cells” value in the assay on C2C12 Cells is listed as 2631. In addition, in the assay with some examined cell types, the “transfection expression and the % cells transfected over the no peptide control” value is recorded as “increased”. Further, in the assay with HuVec Cells, the “RF (Relative Fluorescence) of Transfection of HuVec Cells” value was 13163. Further, in the assay with NL-1 iPS Cells, the “RF (Relative Fluorescence) of Transfection of NL-1 iPS Cells” value turned out to be 19132. Also, the “RF (Relative Fluorescence) of Transfection of HeLa Cells” value with HeLa Cells [1] stood at 13313. For the same substance, the “RF (Relative Fluorescence) of Transfection of Jurkat Cells” value in the assay with Jurkat Cells is listed as 9184. The “RF (Relative Fluorescence), DOTMA/SEQ ID NO: 72/Peptide, HeLa Cells” value was 24092 with HeLa Cells [2] (setting [3]), 23238 in the assay with HeLa Cells [2] (setting [4]), 19802 in the assay with HeLa Cells [2] (setting [5]) and 22255 in the assay with HeLa Cells [2] (setting [6]).
On to “351 (LNRQELFPFG; Peptidic transfection agent) [compound 351]”, for which the “RF (Relative Fluorescence) of Transfection of Human Fibroblast Cells” value in the assay on Human Fibroblast Cells is 8061. Besides, the “RF (Relative Fluorescence) of Transfection of C2C12 Cells” value in the assay with C2C12 Cells came to 3530. The “transfection expression and the % cells transfected over the no peptide control” value in the assay on some examined cell types is recorded as “increased”. Further, in the assay on HuVec Cells, the “RF (Relative Fluorescence) of Transfection of HuVec Cells” value turned out to be 15379. In the assay with NL-1 iPS Cells, the “RF (Relative Fluorescence) of Transfection of NL-1 iPS Cells” value was determined as 24646. For the same substance, the “RF (Relative Fluorescence) of Transfection of HeLa Cells” value in the assay on HeLa Cells [1] was found to be 12279. Also, the “RF (Relative Fluorescence) of Transfection of Jurkat Cells” value with Jurkat Cells was 9730. The “RF (Relative Fluorescence), DOTMA/SEQ ID NO: 72/Peptide, HeLa Cells” value with HeLa Cells [2] (setting [3]) turned out to be 7678; with HeLa Cells [2] (setting [4]), 11499; in the assay on HeLa Cells [2] (setting [5]) it was 10575; in the assay on HeLa Cells [2] (setting [6]), 8791.
Take “353 (KKQRFRHRNRKGYRSQ; Peptidic transfection agent) [compound 353]”: the “RF (Relative Fluorescence) of Transfection of Human Fibroblast Cells” value in the assay with Human Fibroblast Cells was found to be 8653. The “RF (Relative Fluorescence) of Transfection of C2C12 Cells” value in the assay with C2C12 Cells was found to be 4291. In addition, the “transfection expression and the % cells transfected over the no peptide control” value in the assay with some examined cell types is recorded as “increased”. Moreover, the “RF (Relative Fluorescence) of Transfection of HuVec Cells” value in the assay on HuVec Cells is recorded as 8772. The “RF (Relative Fluorescence) of Transfection of NL-1 iPS Cells” value in the assay on NL-1 iPS Cells stood at 9248. The “RF (Relative Fluorescence) of Transfection of HeLa Cells” value with HeLa Cells [1] amounted to 29119. In addition, the “RF (Relative Fluorescence) of Transfection of Jurkat Cells” value with Jurkat Cells is listed as 11107. Moreover, the “RF (Relative Fluorescence), DOTMA/SEQ ID NO: 72/Peptide, HeLa Cells” value is on record as 36315 in the assay with HeLa Cells [2] (setting [3]), 44772 in the assay with HeLa Cells [2] (setting [4]), 36882 in the assay on HeLa Cells [2] (setting [5]) and 25802 with HeLa Cells [2] (setting [6]).
